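Exposure lasted 48 hours, with cells grown in 96-well plates and compounds tested at five concentrations. TGI is the concentration that stops growth completely.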
What was measured:
Assay in all cases: inhibition of tumour cell growth, NCI panel, 48 h
[1] = test system: SNB-78 CNS
[2] = test system: OVCAR-8 ovarian
[3] = test system: UACC-257 melanoma
[4] = test system: U251 CNS
[5] = test system: A498 renal
[6] = test system: SF-295 CNS
[7] = test system: HL-60(TB) leukemia
[8] = test system: CAKI-1 renal
[9] = test system: MOLT-4 leukemia
[10] = test system: RPMI-8226 leukemia
[11] = test system: SR leukemia
[12] = test system: UO-31 renal
[13] = test system: DMS 273 small cell lung
[14] = test system: NCI-H23 lung
[15] = test system: CCRF-CEM leukemia
[16] = test system: HOP-92 NSCLC
[17] = test system: NCI-H460 lung
[18] = test system: KM12 colon
[19] = test system: COLO 205 colon
[20] = test system: ACHN renal
[21] = test system: K-562 leukemia
[22] = test system: HT29 colon
[23] = test system: 786-0 renal
[24] = test system: RXF 393 renal
[25] = test system: HCT-15 colon
[26] = test system: SNB-19 CNS
[27] = test system: KM20L2 colon
[28] = test system: SF-539 CNS
[29] = test system: SNB-75 CNS
[30] = test system: IGROV1 ovarian
[31] = test system: HOP-18 NSCLC
[32] = test system: HCT-116 colon
[33] = test system: OVCAR-3 ovarian
[34] = test system: SN12C renal
[35] = test system: OVCAR-4 ovarian
[36] = test system: A549 NSCLC
[37] = test system: EKVX NSCLC
[38] = test system: LXFL 529 NSCLC
[39] = test system: UACC-62 melanoma
[40] = test system: M19-MEL melanoma
[41] = test system: SK-MEL-2 melanoma
[42] = test system: DLD-1 colon
[43] = test system: HCC-2998 colon
[44] = test system: SK-MEL-28 melanoma
[45] = test system: SW-620 colon
[46] = test system: HOP-62 NSCLC
[47] = test system: DMS 114 small cell lung
[48] = test system: OVCAR-5 ovarian
[49] = test system: LOX IMVI melanoma
[50] = test system: M14 melanoma
[51] = test system: SK-OV-3 ovarian
[52] = test system: NCI-H226 lung
[53] = test system: SK-MEL-5 melanoma
[54] = test system: MALME-3M melanoma
[55] = test system: SF-268 CNS
[56] = test system: TK-10 renal
[57] = test system: NCI-H522 lung

COC1/C(=C\c2ccccc2I)c2ccccc2N1C(C)=O (stereo not drawn)
TGI [1]: 82.5 µM | TGI [2]: > 100 µM | TGI [3]: 44.1 µM | TGI [4]: 42.6 µM | TGI [5]: 30.1 µM | TGI [6]: 29.2 µM | TGI [7]: 16.1 µM | TGI [8]: 50 µM | TGI [9]: 35.8 µM | TGI [10]: 39.1 µM | TGI [11]: 42.9 µM | TGI [12]: 9.91 µM | TGI [13]: 27.1 µM | TGI [14]: 36.5 µM | TGI [15]: 59.1 µM | TGI [16]: 8.99 µM | TGI [17]: 33.5 µM | TGI [18]: 29 µM | TGI [19]: 31.5 µM | TGI [20]: > 100 µM | TGI [21]: 53.3 µM | TGI [22]: 37.1 µM | TGI [23]: 33.3 µM | TGI [24]: 22.3 µM | TGI [25]: 37.4 µM | TGI [26]: 60.4 µM | TGI [27]: 30 µM | TGI [28]: 31.2 µM | TGI [29]: 55 µM | TGI [30]: 39.6 µM | TGI [31]: 38.1 µM | TGI [32]: 26.8 µM | TGI [33]: 31.2 µM | TGI [34]: 28.8 µM | TGI [35]: 32.1 µM | TGI [36]: 35.8 µM | TGI [37]: 39.6 µM | TGI [38]: 87.4 µM | TGI [39]: 26.7 µM | TGI [40]: 42.4 µM | TGI [41]: 32.5 µM | TGI [42]: 43.4 µM | TGI [43]: 33.9 µM | TGI [44]: 38.3 µM | TGI [45]: 39.2 µM | TGI [46]: 32.7 µM | TGI [47]: 38.7 µM

COC(=O)C1[C@@H](C(=O)OC)C(=O)O[C@H]1c1cc(OC)c(OC)c(OC)c1 (stereo partly drawn)
TGI [1]: > 100 µM | TGI [2]: > 100 µM | TGI [48]: > 100 µM | TGI [3]: > 100 µM | TGI [49]: > 100 µM | TGI [4]: > 100 µM | TGI [5]: > 100 µM | TGI [6]: > 100 µM | TGI [7]: > 100 µM | TGI [8]: > 100 µM | TGI [9]: > 100 µM | TGI [50]: > 100 µM | TGI [10]: > 100 µM | TGI [11]: > 100 µM | TGI [51]: > 100 µM | TGI [12]: > 100 µM | TGI [52]: > 100 µM | TGI [13]: > 100 µM | TGI [53]: > 100 µM | TGI [14]: > 100 µM | TGI [15]: > 100 µM | TGI [16]: > 100 µM | TGI [17]: > 100 µM | TGI [18]: > 100 µM | TGI [19]: > 100 µM | TGI [20]: > 100 µM | TGI [21]: > 100 µM | TGI [22]: > 100 µM | TGI [23]: > 100 µM | TGI [24]: > 100 µM | TGI [54]: > 100 µM | TGI [25]: > 100 µM | TGI [26]: > 100 µM | TGI [27]: > 100 µM | TGI [28]: > 100 µM | TGI [29]: > 100 µM | TGI [30]: > 100 µM | TGI [31]: > 100 µM | TGI [55]: > 100 µM | TGI [32]: > 100 µM | TGI [33]: > 100 µM | TGI [34]: > 100 µM | TGI [35]: > 100 µM | TGI [36]: > 100 µM | TGI [38]: > 100 µM | TGI [39]: > 100 µM | TGI [40]: > 100 µM | TGI [56]: > 100 µM | TGI [42]: > 100 µM | TGI [43]: > 100 µM | TGI [44]: > 100 µM | TGI [45]: > 100 µM | TGI [46]: > 100 µM | TGI [47]: > 100 µM

Nc1nc(N)c2ncn(CCCC(c3ccccc3)P(=O)(O)O)c2n1 (stereo not drawn)
TGI [1]: > 100 µM | TGI [2]: > 100 µM | TGI [48]: > 100 µM | TGI [3]: > 100 µM | TGI [49]: > 100 µM | TGI [4]: > 100 µM | TGI [5]: > 100 µM | TGI [6]: > 100 µM | TGI [7]: > 100 µM | TGI [8]: > 100 µM | TGI [50]: > 100 µM | TGI [10]: > 100 µM | TGI [11]: > 100 µM | TGI [51]: > 100 µM | TGI [12]: > 100 µM | TGI [13]: > 100 µM | TGI [53]: > 100 µM | TGI [14]: 36 µM | TGI [15]: > 100 µM | TGI [16]: > 100 µM | TGI [17]: > 100 µM | TGI [18]: > 100 µM | TGI [19]: > 100 µM | TGI [20]: > 100 µM | TGI [21]: > 100 µM | TGI [22]: > 100 µM | TGI [23]: > 100 µM | TGI [54]: > 100 µM | TGI [25]: > 100 µM | TGI [26]: > 100 µM | TGI [27]: > 100 µM | TGI [28]: > 100 µM | TGI [29]: > 100 µM | TGI [30]: > 100 µM | TGI [31]: > 100 µM | TGI [55]: > 100 µM | TGI [57]: > 100 µM | TGI [32]: > 100 µM | TGI [33]: > 100 µM | TGI [34]: > 100 µM | TGI [36]: > 100 µM | TGI [38]: > 100 µM | TGI [39]: > 100 µM | TGI [40]: > 100 µM | TGI [41]: > 100 µM | TGI [56]: > 100 µM | TGI [42]: > 100 µM | TGI [43]: > 100 µM | TGI [44]: > 100 µM | TGI [45]: > 100 µM | TGI [46]: > 100 µM | TGI [47]: > 100 µM

From PubChem BioAssay (NCI)
